According to patent US20060216775A1, “Compositions and methods for analysis and manipulation of enzymes in biosynthetic proteomes” (priority 2003, published 2006):

Molecular target: T1, VibB (UniProt P0C6D3+P39135)
T1 construct: made in house; host or cells: E. coli BL21 (DE3), crude lysate
Assay type: biochemical, Vibrio cholera
Settings: cell lysate of E. coli BL21 producing VibB, recombinant Sfp, SDS-PAGE, UV irradiation
Excerpt: To investigate PPTase transfer of non-thioester CoA derivatives, Sfp was used for post-translational modification of known, heterologously expressed CP domains (FIG. 11). As a first experiment, VibB was used. VibB is a small protein from the Vibrio cholera vibriobactin biosynthetic machinery that consists of a modular NRP synthase system. VibB contains only one carrier protein domain and as such is a perfect model system due to its small size and facile expression in E. coli. Cell lysate was collected from induced E. coli BL21 cells producing VibB from a pET24 expression vector. An aliquot of this lysate was incubated with CoA-BODIPY derivative and recombinant Sfp and analyzed by SDS-PAGE. […] Coomassie staining of the gel confirmed the band to be fluorescently-tagged VibB (32.6 kD) (FIG. 11C). […]
One Liter of E. Coli BL21 (DE3) cells induced to express recombinant VibB, FrenACP, OtcACP, and TcmACP, each in pET22b vectors (Novagen, Madison, Wis.), were pelleted, resuspended, and lysed by sonication in 30 mL 0.1 M Tris-Cl pH 8.0 with 1% glycerol in the presence of 500 μL of a 10 mM protease inhibitor cocktail containing bestatin, pepstatin A, E-64, and phosphoramidon (Sigma-Aldrich) and sonicated by pulsing for 5 minutes on ice. […] Protein concentration was determined using the Bradford method with bovine serum albumin (Sigma-Aldrich) as a standard.

T1 sequence (P39135 whole entry): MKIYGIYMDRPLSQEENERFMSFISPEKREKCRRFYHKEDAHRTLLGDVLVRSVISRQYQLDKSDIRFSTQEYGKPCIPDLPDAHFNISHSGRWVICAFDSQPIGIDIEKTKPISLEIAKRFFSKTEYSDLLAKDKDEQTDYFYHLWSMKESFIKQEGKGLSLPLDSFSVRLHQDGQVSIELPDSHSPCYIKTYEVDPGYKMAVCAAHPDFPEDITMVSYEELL
T1 sequence (P0C6D3 whole entry): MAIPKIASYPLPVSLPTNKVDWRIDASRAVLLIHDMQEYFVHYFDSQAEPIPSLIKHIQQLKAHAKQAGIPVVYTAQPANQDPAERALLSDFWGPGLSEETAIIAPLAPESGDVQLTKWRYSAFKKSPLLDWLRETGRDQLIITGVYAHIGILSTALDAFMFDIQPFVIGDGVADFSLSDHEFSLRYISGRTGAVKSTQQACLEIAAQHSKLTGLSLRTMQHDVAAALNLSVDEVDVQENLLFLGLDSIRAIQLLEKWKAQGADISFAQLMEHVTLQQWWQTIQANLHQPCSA

## O=C(O)c1cc(N2C(=O)C=CC2=O)ccc1-c1c2cc(F)c(=O)cc-2oc2cc(O)c(F)cc12 [1b, Oregon Green® 488 maleimide]
  fluorescent labeling of VibB: Comparable labeling
